What was measured:
[1] = system: 4T1 tumor-bearing mice; test: PTT-induced inflammation, 4T1 metastasis tumor model; conditions: intravenous three times per week
Procedure: The fluorescent signal intensity was recorded on the IVIS® instrument at different time intervals.
The ability of the MnO and MnO@Cucumin nanoparticles to mitigate the PTT-induced inflammatory response was examined on 4T1 tumor-bearing mice. […] The 4T1 tumor-bearing mice received photothermal therapy first, and then were further treated with different formulations by intravenous injection three times per week.

[2] = system: calf thymus DNA; test: PicoGreen DNA-binding assay; conditions: TE buffer, unbound PicoGreen-labeled DNA
Procedure: The fluorescence intensity of the unbound Picogreen®-DNA complex at 520 nm was measured with a multiwell plate reader via excitation at 490 nm.
Inflammatory circulating cfDNA released by PTT-damaged host cells might cause a severe inflammatory response, which may be mitigated by the scavenging of cfDNA. Therefore, to interrogate the cfDNA scavenging ability of the various nanoparticles, the inventors investigated the calf thymus DNA binding affinity of the nanoparticles in Tris-EDTA (TE) buffer with and without 10% FBS by measuring unbound PicoGreen®-labeled DNA (FIGS. 5C and 5D).

Structure (SMILES) | body weight ([1]; after laser (PTT)) | tumor recurrence and metastasis ([1]; after laser (PTT)) | effect on body weight of the mice ([1]; without laser) | effect on size of the tumors ([1]; without laser) | DNA binding affinity [2]
COc1cc(/C=C/C(=O)CC(=O)/C=C/c2ccc(O)c(OC)c2)ccc1O [curcumin] | increased body weight | inhibited tumor recurrence and metastasis | did not show obvious effects | did not show obvious effects | negligible DNA binding ability
O=C(OC[C@H]1O[C@@H](OC(=O)c2cc(O)c(O)c(OC(=O)c3cc(O)c(O)c(O)c3)c2)[C@H](OC(=O)c2cc(O)c(O)c(OC(=O)c3cc(O)c(O)c(O)c3)c2)[C@@H](OC(=O)c2cc(O)c(O)c(OC(=O)c3cc(O)c(O)c(O)c3)c2)[C@@H]1OC(=O)c1cc(O)c(O)c(OC(=O)c2cc(O)c(O)c(O)c2)c1)c1cc(O)c(O)c(OC(=O)c2cc(O)c(O)c(O)c2)c1 [tannic acid] | – | – | – | – | can bind to DNA

— patent US20240390417A1, “MNO NANOMATERIAL BASED INHIBITORS OF INFLAMMATION AND SARS-COV-2 VIRAL REPLICATION” (Duke University, priority 2015, published 2024)
